Like-named read-outs stand apart in the source and are kept apart here.
Key:
[1] = biological target: T1, RORγ ligand binding domain (LBD) (Homo sapiens, UniProt P51449); assay: TR-FRET Activity Assay (ligand sensing, RORγ-LBD / coactivator peptide interaction, LANCE); assay type: biochemical
T1 construct: made in house; host or cells: E. coli BL-21 (BL3), vector pDEST15
T1 sequence (P51449 269-508 limits assumed): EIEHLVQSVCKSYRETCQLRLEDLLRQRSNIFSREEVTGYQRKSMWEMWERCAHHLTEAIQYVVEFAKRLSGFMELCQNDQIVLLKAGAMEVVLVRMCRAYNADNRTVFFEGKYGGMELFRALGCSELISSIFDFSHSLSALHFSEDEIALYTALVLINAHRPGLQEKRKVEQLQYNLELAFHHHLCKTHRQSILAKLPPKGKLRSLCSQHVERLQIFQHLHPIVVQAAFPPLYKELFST

[2] = biological target: T2, RORγ (UniProt P51449); assay: RORγ Gal4 Reporter Gene Assay in 293T cells (firefly and renilla luciferase); assay type: cell-based, human
T2 sequence (P51449 1-518): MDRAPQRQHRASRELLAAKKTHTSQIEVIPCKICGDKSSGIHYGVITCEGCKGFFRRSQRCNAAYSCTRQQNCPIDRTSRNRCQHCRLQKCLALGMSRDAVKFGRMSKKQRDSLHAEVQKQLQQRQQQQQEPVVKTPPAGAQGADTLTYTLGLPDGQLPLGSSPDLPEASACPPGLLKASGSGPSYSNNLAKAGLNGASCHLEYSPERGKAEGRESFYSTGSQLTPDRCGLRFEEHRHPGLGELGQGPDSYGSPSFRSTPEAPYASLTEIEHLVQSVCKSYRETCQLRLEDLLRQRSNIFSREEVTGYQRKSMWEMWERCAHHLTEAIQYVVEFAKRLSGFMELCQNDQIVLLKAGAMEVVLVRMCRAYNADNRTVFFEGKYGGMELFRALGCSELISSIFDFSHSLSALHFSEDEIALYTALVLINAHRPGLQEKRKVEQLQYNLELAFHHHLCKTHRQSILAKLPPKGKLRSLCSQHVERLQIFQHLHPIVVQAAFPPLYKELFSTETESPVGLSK

[3] = first value of the cell FRET/FF/REN, TR-FRET activity assay, read-out: pIC50 (FRET) (converted)
[4] = second value of the cell, Gal4 reporter gene assay in 293T cells, firefly luciferase
[5] = third value of the cell, Gal4 reporter gene assay in 293T cells, renilla normalised luciferase

## Cc1c(C(=O)NC2CN(C(=O)OC(C)(C)C)C2)cc(-c2cc(C(C)(C)C)cc(C(C)(C)C)c2)n1CC1CCCCC1 [1/15]
[1]; [3]
  IC50: 3160 nM
[2]; [4]
  pIC50 (FF): 5.5/5.5/5.5
[2]; [5]
  pIC50 (REN): 5.5/5.5/5.5

## Cc1c(C(=O)NC2CCOCC2)cc(-c2cc(Cl)cc(C(=O)NC(C)(C)C)c2)n1CC1CCCCC1 [17/219]
[1]; [3]
  IC50: 501 nM
[2]; [4]
  pIC50 (FF): 6.9
[2]; [5]
  pIC50 (REN): 7.0

## Cc1c(C(=O)NCC(C)(C)O)cc(-c2cc(C(C)(C)C)cc(C(C)(C)C)c2)n1S(=O)(=O)N1CCCCC1 [7/7]
[1]; [3]
  IC50: 398 nM
[2]; [4]
  pIC50 (FF): 6.5
[2]; [5]
  pIC50 (REN): 6.6

## Cc1c(C(=O)NCC2(O)CCOCC2)cc(-c2cc(C(=O)NC(C)(C)C)cc(C3(C)CC3)c2)n1CC1CCCCC1 [17/341]
[1]
  IC50: 794 nM
[2]
  pIC50 (FF): 6.1/7.4/7.6
  pIC50 (REN): 6.1/7.4/7.6

## Cc1c(C(=O)NC2CCOCC2)cc(-c2ccc(S(=O)(=O)NC(C)(C)C)c3ccccc23)n1CC1CCC1 [17/242]
[1]; [3]
  IC50: 398 nM
[2]; [4]
  pIC50 (FF): 7.5
[2]; [5]
  pIC50 (REN): 7.6

## Cc1c(C(=O)NCCN2CCOCC2)cc(-c2cc(C(C)(C)C)c3c(c2)C2(CCO3)CC2)n1CC1CCCCC1 [1/41]
[1]
  IC50: 501 nM
[2]
  pIC50 (FF): 6.3/6.9/7.0
  pIC50 (REN): 6.3/6.9/7.0

## CC(=O)c1cc(-c2cc(C(=O)NC3CCOCC3)c(C)n2CC2CCCCC2)cc(C(C)(C)C)c1 [17/103]
[1]
  IC50: 794 nM
[2]
  pIC50 (FF): 6.1/6.7/6.8
  pIC50 (REN): 6.1/6.7/6.8

## Cc1c(C(=O)NC2CCOCC2)cc(-c2cc(Cl)c(S(=O)(=O)NC(C)(C)C)c(C(F)(F)F)c2)n1CC1CCCCC1 [17/113]
[1]; [3]
  IC50: 501 nM
[2]; [4]
  pIC50 (FF): 6.8
[2]; [5]
  pIC50 (REN): 6.8

## Cc1c(C(=O)NCC(C)(C)O)cc(-c2ccc(S(=O)(=O)NC(C)(C)C)c3c(F)cccc23)n1CC1CCCCC1 [17/365]
[1]; [3]
  IC50: 1260 nM
[2]; [4]
  pIC50 (FF): 7.0
[2]; [5]
  pIC50 (REN): 7.0

## Cc1c(C(=O)NCC2(O)CCOCC2)cc(-c2ccc(S(=O)(=O)NC(C)(C)C)c3ccccc23)n1CC1CCCCC1 [17/239]
[1]; [3]
  IC50: 1000 nM
[2]; [4]
  pIC50 (FF): 7.9
[2]; [5]
  pIC50 (REN): 8.1

## CC(C)(C)NS(=O)(=O)c1ccc(-c2cc(C(=O)NC3CCOCC3)c(Cl)n2CC2CCCCC2)c2ccccc12 [22/1]
[1]
  IC50: 158 nM
[2]
  pIC50 (FF): 6.8/8.4/8.4
  pIC50 (REN): 6.8/8.4/8.4

## Cc1c(C(=O)NCC(C)(C)c2noc(=O)[nH]2)cc(-c2cc(C(C)(C)O)cc(C3(C)CC3)c2)n1CC1CCCCC1 [17/310]
[1]; [3]
  IC50: 1000 nM
[2]; [4]
  pIC50 (FF): 7.4
[2]; [5]
  pIC50 (REN): 7.6

## Cc1c(C(=O)NC2CCOCC2)cc(-c2ccc(S(=O)(=O)NC(C)(C)C)c(OCC(C)(C)C)c2)n1CC1CCCCC1 [17/165]
[1]
  IC50: 5010 nM
[2]
  pIC50 (FF): 5.3/6.5/6.9
  pIC50 (REN): 5.3/6.5/6.9

## CCN(C(C)(C)C)S(=O)(=O)c1ccc(-c2cc(C(=O)NC3CCOCC3)c(C)n2CC2CCCCC2)cc1C(F)F [17/125]
[1]
  IC50: 79.4 nM
[2]
  pIC50 (FF): 7.1/6.4/6/
  pIC50 (REN): 7.1/6.4/6/

## Cc1c(C(=O)NC(C)C(C)(C)O)cc(-c2cc(C(C)(C)C)cc(C(C)(C)C)c2)n1CC1CCCCC1 (stereo not drawn) [1/36]
[1]
  IC50: 158 nM
[2]
  pIC50 (FF): 6.8/6.5/6.6
  pIC50 (REN): 6.8/6.5/6.6

## Cc1c(C(=O)NCC2(O)CCOCC2)cc(-c2ccc(S(=O)(=O)NC(C)(C)C)c(C(C)(C)C)c2)n1CC1CCCCC1 [1/124]
[1]
  IC50: 631 nM
[2]
  pIC50 (FF): 6.2/7.5/7.5
  pIC50 (REN): 6.2/7.5/7.5

## Cc1c(C(=O)NCC2CCS(=O)(=O)C2)cc(-c2cc(C(C)(C)C)c3c(c2)C2(CCO3)CC2)n1CC1CCCCC1 (stereo not drawn) [17/12]
[1]; [3]
  IC50: 200 nM
[2]; [4]
  pIC50 (FF): 7.2
[2]; [5]
  pIC50 (REN): 7.4

## COCCS(=O)(=O)NC(C)(C)CNC(=O)c1cc(-c2cc(C(C)(C)C)c3c(c2)C2(CCO3)CC2)n(CC2CCCCC2)c1C [17/32]
[1]
  IC50: 200 nM
[2]
  pIC50 (FF): 6.7/7.2/7.2
  pIC50 (REN): 6.7/7.2/7.2

## Cc1c(C(=O)NC2CCOCC2)cc(-c2ccc(S(=O)(=O)NC(C)(C)C)c(C(F)(F)F)c2)n1CC1CCCC(C(F)(F)F)C1 (stereo not drawn) [17/87]
[1]
  IC50: 501 nM
[2]
  pIC50 (FF): 6.3/6.9/6.9
  pIC50 (REN): 6.3/6.9/6.9

## Cc1c(C(=O)NCC(C)(C)C(=O)N2CCOCC2)cc(-c2cc(C(C)(C)C)c3c(c2)C2(CCO3)CC2)n1CC1CCCCC1 [Example 11, 5(8-(tert-Butyl)spiro[chroman-4,1′-cyclopropan]-6-yl)-1-(cyclohexylmethyl)-N-(2,2-dimethyl-3-morpholino-3-oxopropyl)-2-methyl-1H-pyrrole-3-carboxamide]
[1]; [3]
  IC50: 251 nM
[2]; [4]
  pIC50 (FF): 6.5
[2]; [5]
  pIC50 (REN): 6.5

## CCCNS(=O)(=O)c1ccc(-c2cc(C(=O)NC3CCOCC3)c(C)n2CC2CCCCC2)cc1C(F)(F)F [17/111]
[1]; [3]
  IC50: 316 nM
[2]; [4]
  pIC50 (FF): 7.2
[2]; [5]
  pIC50 (REN): 7.3

## Cc1c(C(=O)NC2CCOCC2)cc(-c2ccc(S(=O)(=O)NC(C)(C)CCO)c(C(F)(F)F)c2)n1CC1CCCCC1 [17/108]
[1]; [3]
  IC50: 1000 nM
[2]; [4]
  pIC50 (FF): 6.9
[2]; [5]
  pIC50 (REN): 7.1

## Cc1c(C(=O)NC2CCNC(=O)C2)cc(-c2ccc(S(=O)(=O)NC(C)(C)C)c(C(C)(C)C)c2)n1CC1CCCCC1 (stereo not drawn) [17/89]
[1]; [3]
  IC50: 1580 nM
[2]; [4]
  pIC50 (FF): 6.9
[2]; [5]
  pIC50 (REN): 6.9

## Cc1c(C(=O)NC2CCOCC2)cc(-c2cc(C(=O)NC(C)(C)C)cc(C(=O)NC(C)(C)C)c2)n1CC1CCCCC1 [17/75]
[1]
  IC50: 6310 nM
[2]
  pIC50 (FF): 5.2/5.8/5.8
  pIC50 (REN): 5.2/5.8/5.8

## Cc1c(C(=O)NC2CCOCC2)cc(-c2ccc(S(=O)(=O)NC(C)C(C)(C)O)c(C(F)(F)F)c2)n1CC1CCCCC1 (stereo not drawn) [17/146]
[1]; [3]
  IC50: 1000 nM
[2]; [4]
  pIC50 (FF): 7.4
[2]; [5]
  pIC50 (REN): 7.5

## Cc1c(C(=O)NCC2(C(N)=O)CCOCC2)cc(-c2cc(C(C)(C)C)c3c(c2)C2(CCO3)CC2)n1CC1CCCCC1 [17/41]
[1]; [3]
  IC50: 398 nM
[2]; [4]
  pIC50 (FF): 8.1
[2]; [5]
  pIC50 (REN): 8.2

## Cc1c(C(=O)NCC(N)=O)cc(-c2cc(C(C)(C)C)cc(C(C)(C)C)c2)n1CC1CCCCC1 [1/5]
[1]; [3]
  IC50: 1000 nM
[2]; [4]
  pIC50 (FF): 6.3
[2]; [5]
  pIC50 (REN): 6.2

## Cc1c(C(=O)NCC(C)(C)NC(=O)CCC(=O)O)cc(-c2cc(C(C)(C)C)c3c(c2)C2(CCO3)CC2)n1CC1CCCCC1 [17/29]
[1]; [3]
  IC50: 1260 nM
[2]; [4]
  pIC50 (FF): 6.8
[2]; [5]
  pIC50 (REN): 6.7

## Cc1c(C(=O)NCCCCCS(N)(=O)=O)cc(-c2cc(C(C)(C)C)c3c(c2)C2(CCO3)CC2)n1CC1CCCCC1 [17/114]
[1]; [3]
  IC50: 631 nM
[2]; [4]
  pIC50 (FF): 6.5
[2]; [5]
  pIC50 (REN): 6.4

## Cc1c(C(=O)NCC(C)(C)C(=O)NCCCCO)cc(-c2cc(C(C)(C)C)c3c(c2)C2(CCO3)CC2)n1CC1CCCCC1 [11/7]
[1]; [3]
  IC50: 251 nM
[2]; [4]
  pIC50 (FF): 7.1
[2]; [5]
  pIC50 (REN): 7.2

## Cc1c(C(=O)NCCOC(C)C)cc(-c2cc(C(C)(C)C)cc(C(C)(C)C)c2)n1CC1CCCCC1 [1/62]
[1]
  IC50: 316 nM
[2]
  pIC50 (FF): 6.5/6.4/6.3
  pIC50 (REN): 6.5/6.4/6.3

## Cc1c(C(=O)N2CC(C(C)(C)C(=O)O)C2)cc(-c2ccc(S(=O)(=O)NC(C)(C)C)c(C(F)(F)F)c2)n1CC1CCCCC1 [17/180]
[1]; [3]
  IC50: 631 nM
[2]; [4]
  pIC50 (FF): 7.1
[2]; [5]
  pIC50 (REN): 7.2

## Cc1c(C(=O)NC2CCOCC2)cc(-c2ccc(S(=O)(=O)NC3(C#N)CC3)c(C(F)(F)F)c2)n1CC1CCCCC1 [17/144]
[1]; [3]
  IC50: 501 nM
[2]; [4]
  pIC50 (FF): 7.7
[2]; [5]
  pIC50 (REN): 7.7

From US9815851B2, “Pyrrolo carboxamides as modulators of orphan nuclear receptor RAR-related orphan receptor-gamma (RORγ, NR1F3) activity and for the treatment of chronic inflammatory and autoimmune diseases” (PHENEX PHARMACEUTICALS AG, priority 2011, dated 2017)
